Data on seven molecules can be found in article PMC12388125, “Design, Synthesis, and Pharmacological Activity of the N-(4-(1H-1,2,4-Triazol-1-yl)phenyl)-substituted-amide Derivatives” (Molecules, 2025).

Where two headings read alike, the source gives them in different places.

For one data set, the system named is mice. Put plainly: Rotarod (ROT) neurotoxicity test. The conditions noted are these: for NT (neurotoxicity, ROT), dose at which at least one of three animals showed neurotoxicity: doses 100, 300 mg/kg.
In a further data set the test system is MES-induced seizures. The experiment in a line: animal or person. It counts as in vivo, Kunming mice. The conditions noted are these: for minimal effective dose: Mus musculus, ip, doses 30, 100, 300 mg/kg, read-out: MES, dose at which at least one of three animals was protected. The procedure:
(§1) Pharmacological tests were performed using two experimental animal models, MES and scPTZ, which were divided into three dosage groups of 30, 100, and 300 mg/kg, and the anticonvulsant activity of the target compounds 6a–m and 9a–g, after 0.5 and 4 h of administration, respectively, were tested. Carbamazepine, which is effective in the MES model, was chosen as a positive control, and ethosuximide, which is effective in the scPTZ model, was chosen as a positive control. […]
Protection against the spread of
extension component of the seizure. […]

Data set [1] deals with pentylenetetrazole-induced clonic seizures. Put plainly: animal or person. It counts as in vivo, Kunming mice. The conditions noted are these: for minimal effective dose: Mus musculus, sc, doses 30, 100, 300 mg/kg, read-out: scPTZ, dose at which at least one of three animals was protected. The procedure: as §1
The test compound wa s
Absence of clonic spasms indicated a […]

Procedure for mice: The neurotoxicity of the target compounds was tested using the ROT experimental model, which was divided into two dose groups, 100 and 300 mg/kg, and tested after 0.5 and 4 h of administration, respectively.
The neurotoxicity of the target compounds was determined using the ROT experimental model.
The neurotoxicity of the compounds wa s measured in mice using the rotarod test. Mice
we r e trained to stay on an accelerating rotarod (diameter, 3.2 cm) rotating at 10 rpm. Trained
animals we r e injected with the test compounds (i.p.) and neurotoxicity wa s measured as the
inability of the animal to maintain equilibrium on the rod for at least 1 min in each of the

As for `CCCC(=O)Nc1ccc(-n2cncn2)cc1` [Compound 9b, N-(4-(1H-1,2,4-triazol-1-yl)phenyl)butyramide], the “NT (neurotoxicity, ROT), dose at which at least one of three animals showed neurotoxicity” value (“NT (neurotoxicity, ROT), dose at which” for short) in the data set on mice (0.5 h after administration) is given as 300 mg/kg; with mice (4 h after administration) it was >300 mg/kg. Besides, the minimal effective dose in the data set on MES-induced seizures (0.5 h after administration) is 30 mg/kg; in the data set with MES-induced seizures (4 h after administration) it was 100 mg/kg; in data set [1] (0.5 h after administration) it was 30 mg/kg; in data set [1] (4 h after administration) it was 100 mg/kg.
For the molecule `CCCCCC(=O)Nc1ccc(-n2cncn2)cc1` [Compound 9d, N-(4-(1H-1,2,4-triazol-1-yl)phenyl)hexanamide], the “NT (neurotoxicity, ROT), dose at which” value with mice (0.5 h after administration) and in the data set with mice (4 h after administration) was >300 mg/kg throughout. Also, the minimal effective dose in the data set on MES-induced seizures (0.5 h after administration) came out at 30 mg/kg; in the data set on MES-induced seizures (4 h after administration), 30 mg/kg; in data set [1] (0.5 h after administration), 100 mg/kg; in data set [1] (4 h after administration), 100 mg/kg.
Turning to `O=C(Nc1ccc(-n2cncn2)cc1)c1ccccc1Cl` [Compound 6b, N-(4-(1H-1,2,4-triazol-1-yl)phenyl)-2-chlorobenzamide], the “NT (neurotoxicity, ROT), dose at which” value with mice (0.5 h after administration) and in the data set on mice (4 h after administration) was >300 mg/kg each time. The minimal effective dose with MES-induced seizures (0.5 h after administration) stood at 300 mg/kg; in the data set with MES-induced seizures (4 h after administration), 100 mg/kg; in data set [1] (0.5 h after administration) it was 100 mg/kg; in data set [1] (4 h after administration), 300 mg/kg.
For the molecule `O=C(Nc1ccc(-n2cncn2)cc1)c1ccccc1F` [Compound 6e, N-(4-(1H-1,2,4-triazol-1-yl)phenyl)-2-fluorobenzamide], the “NT (neurotoxicity, ROT), dose at which” value in the data set on mice (0.5 h after administration) and with mice (4 h after administration) was >300 mg/kg each time. In addition, the minimal effective dose (in the data set on MES-induced seizures (0.5 h after administration); in the data set with MES-induced seizures (4 h after administration); in data set [1] (0.5 h after administration); in data set [1] (4 h after administration)) was 100 mg/kg throughout.
Take `O=C(Nc1ccc(-n2cncn2)cc1)c1ccc(F)cc1` [Compound 6g, N-(4-(1H-1,2,4-triazol-1-yl)phenyl)-4-fluorobenzamide]: the “TD50 (ROT)” value in the data set on mice (0.5 h, value (95% CI)) is on record as 429.1 (466.4–394.7) mg. The “NT (neurotoxicity, ROT), dose at which” value in the data set with mice (0.5 h after administration) and in the data set on mice (4 h after administration) was >300 mg/kg each time. The molecule also registered an ED50 (MES) in the data set with MES-induced seizures (0.5 h, value (95% CI)) of 13.7 mg/kg. Further, the “PI (TD50/ED50) MES” value in the data set with MES-induced seizures (Kunming, mouse, in vivo, 0.5 h) was 31.3. Also, the minimal effective dose in the data set with MES-induced seizures (0.5 h after administration) turned out to be 30 mg/kg; with MES-induced seizures (4 h after administration), 30 mg/kg; in data set [1] (0.5 h after administration) it was 30 mg/kg; in data set [1] (4 h after administration) it was 100 mg/kg. In data set [1] (0.5 h, value (95% CI)), this molecule came in with an ED50 (scPTZ) of 31.5 mg/kg. Besides, the “PI (TD50/ED50) scPTZ” value in data set [1] (Kunming, mouse, in vivo, 0.5 h) is 13.6.
Turning to `O=C(Nc1ccc(-n2cncn2)cc1)c1ccc(C(F)(F)F)cc1` [Compound 6j, N-(4-(1H-1,2,4-triazol-1-yl)phenyl)-4-(trifluoromethyl)benzamide], the “NT (neurotoxicity, ROT), dose at which” value with mice (0.5 h after administration) and in the data set on mice (4 h after administration) was >300 mg/kg in each case. Besides, the minimal effective dose with MES-induced seizures (0.5 h after administration) was 100 mg/kg; with MES-induced seizures (4 h after administration), 300 mg/kg; in data set [1] (0.5 h after administration) it was 100 mg/kg; in data set [1] (4 h after administration), 100 mg/kg.
Take `Cc1ccc(C(=O)Nc2ccc(-n3cncn3)cc2)cc1` [Compound 6m, N-(4-(1H-1,2,4-triazol-1-yl)phenyl)-4-methylbenzamide]: the “NT (neurotoxicity, ROT), dose at which” value with mice (0.5 h after administration) and in the data set on mice (4 h after administration) was >300 mg/kg each time. Also, the minimal effective dose in the data set on MES-induced seizures (0.5 h after administration) is 300 mg/kg; with MES-induced seizures (4 h after administration) it was 300 mg/kg; in data set [1] (0.5 h after administration), 100 mg/kg; in data set [1] (4 h after administration), 300 mg/kg.
